The subject of data set [1] is chorionic stromal cells in suspension. The experiment in a line: Uptake of FITC-trehalose by chorionic stromal cells in suspension. The conditions noted are these: 4 hours at room temperature. The format is cell-based, human. The protocol: Previous reports of lyophilization of cells in suspension have used trehalose as a lyoprotectant. To confirm that placental cells can uptake trehalose, cells were fully isolated from chorionic membranes and added to a well-plate. To the cell suspension, a commercially available fluorescently tagged trehalose, FITC-trehalose, was added and allowed to incubate for 4 hours at room temperature. Cells were washed multiple times to remove any remaining free FITC-trehalose.

Data set [2] has as its system epithelial cells in the amniotic membrane. As to the kind of experiment: Uptake of FITC-trehalose by native cells in fresh amniotic membrane. The class given is cell-based, human. The following applies: 2.5 mM FITC-trehalose in 0.5M trehalose, room temperature, 1 hour. The protocol: (§1) To further investigate the protective mechanism that leads to viable lyophilized placental membrane compositions, fresh amniotic and chorionic membranes were incubated in 2.5 mM FITC-trehalose in a 0.5M trehalose solution at room temperature for 1 hour and then thoroughly washed to remove excess trehalose. […] Longer incubation times with higher concentrations of trehalose at an elevated temperature could increase diffusion of trehalose into these cells and may promote enhanced cell survival following lyophilization.

Data set [3] has as its system stromal cells in the chorionic membrane. The experiment in a line: Uptake of FITC-trehalose by native cells in fresh chorionic membrane. The format is cell-based, human. The conditions noted are these: 2.5 mM FITC-trehalose in 0.5M trehalose, room temperature, 1 hour. On the procedure: as §1
For data set [4], the system named is chondrocytes embedded in bovine cartilage matrix. As to the kind of experiment: Uptake of FITC-trehalose by chondrocytes embedded in bovine cartilage matrix. The class given is cell-based. The following applies: intact bovine cartilage, 4 hours. On the procedure:
The same lyophilization methods effective for placental membrane and skin allograft compositions were used for cartilage graft compositions. First, intact pieces of bovine cartilage were incubated with FITC-trehalose for 4 hours and washed thoroughly to remove excess trehalose. […] Intact bovine cartilage, intact bovine cartilage with 1 mm pores, and micronized bovine cartilage were soaked in a trehalose solution for 4 hours at 37 C with agitation prior to lyophilization in the same trehalose solution.

For the substance FITC-trehalose, the uptake of trehalose entry in data set [1] was “uptake trehalose at low levels”; in data set [2], “readily uptake trehalose”; in data set [3], “readily uptake trehalose”; in data set [4] it was “some trehalose can be taken up by chondrocytes”.

Source of the values: patent publication US20260091065A1, “VIABLE LYOPHILIZED COMPOSITIONS DERIVED FROM HUMAN TISSUES AND METHODS OF MAKING THE SAME” (OSIRIS THERAPEUTICS, INC., priority 2016, published 2026).
